US4946852A, “4(R)-substituted 6(S)-phenoxymethyl-, 6(S)-β-phenylethyl- and 6(S)-β-styryl-tetrahydropyran-2-ones, a highly stereoselective process for their preparation, pharmaceutical products based on these compounds, and their use” (Hoechst Aktiengesellschaft, priority 1986, dated 1990)

Target: T1, HMG-CoA reductase (Rattus norvegicus, UniProt P51639)
T1 sequence (P51639 1-887): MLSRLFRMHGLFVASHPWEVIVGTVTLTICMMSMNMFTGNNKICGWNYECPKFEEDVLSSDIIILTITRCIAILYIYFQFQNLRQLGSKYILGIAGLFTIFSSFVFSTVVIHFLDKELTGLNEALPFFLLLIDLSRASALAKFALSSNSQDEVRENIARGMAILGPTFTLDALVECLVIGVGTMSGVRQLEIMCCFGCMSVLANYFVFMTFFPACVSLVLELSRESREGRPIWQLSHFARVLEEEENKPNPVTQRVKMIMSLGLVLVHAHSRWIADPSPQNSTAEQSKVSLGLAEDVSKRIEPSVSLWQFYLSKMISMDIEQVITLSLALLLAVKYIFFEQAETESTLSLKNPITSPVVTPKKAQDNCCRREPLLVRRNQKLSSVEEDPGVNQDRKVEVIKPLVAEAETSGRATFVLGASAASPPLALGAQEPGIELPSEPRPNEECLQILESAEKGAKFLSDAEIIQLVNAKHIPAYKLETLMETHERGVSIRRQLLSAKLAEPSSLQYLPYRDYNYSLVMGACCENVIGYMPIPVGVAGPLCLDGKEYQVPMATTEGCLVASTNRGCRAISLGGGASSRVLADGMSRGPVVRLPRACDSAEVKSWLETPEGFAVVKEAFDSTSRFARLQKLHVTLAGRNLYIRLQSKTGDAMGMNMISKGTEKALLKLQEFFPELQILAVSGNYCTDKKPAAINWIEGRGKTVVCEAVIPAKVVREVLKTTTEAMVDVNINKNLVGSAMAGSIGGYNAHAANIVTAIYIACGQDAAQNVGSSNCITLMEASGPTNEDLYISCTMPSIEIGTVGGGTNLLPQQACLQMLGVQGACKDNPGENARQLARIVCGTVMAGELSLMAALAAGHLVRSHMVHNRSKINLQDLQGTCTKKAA
Experiment: Inhibition of HMG-CoA reductase activity on solubilized enzyme preparations from rat liver microsomes
Format: biochemical
Settings: solubilized rat-liver microsomal enzyme; for IC50: molar concentration required for 50% inhibition, (S,R) 14C-HMG-CoA substrate, mean of 3 parallel samples

Row | IC50 [µM] | inhibition (at 10^-6) [%] | inhibition (at 10^-7) [%] | SMILES
1 | 1 | – | – | Cc1cc(C)c(OC[C@@H]2C[C@@H](O)CC(=O)O2)c(CCCOc2ccc(F)cc2)c1 [A, 6(S)-{4,6-dimethyl-2-[3-(4-fluorophenoxy)propyl]phenoxymethyl}-3,4,5,6-tetrahydro-4(R)-hydroxy-2H-pyran-2-one, reference compound]
2 | 0.3 | – | – | CC(=O)S[C@H]1CC(=O)O[C@H](COc2c(C)cc(C)cc2CCCOc2ccc(F)cc2)C1 [Va, 6S-({[2-(4-Fluorophenoxy-3-propyl)]-4,6-dimethylphenoxy}methyl)-4R-acetylmercapto-3,4,5,6-tetrahydro-2H-pyran-2-one]
3 | ~100 | – | – | Cc1cc(C)c(OC[C@@H]2C[C@@H](SCc3ccccc3)CC(=O)O2)c(CCCOc2ccc(F)cc2)c1 [Vc, 6S-({[2-(4-Fluorophenoxy-3-propyl)]-4,6-dimethylphenoxy}methyl)-4R-benzylmercapto-3,4,5,6-tetrahydro-2H-pyran-2-one]
4 | 1 | – | – | Cc1cc(C)c(OC[C@@H]2C[C@@H](SCCO)CC(=O)O2)c(CCCOc2ccc(F)cc2)c1 [Vd, 6S-({[2-(4-Fluorophenoxy-3-propyl)]-4,6-dimethylphenoxy}methyl)-4R-β-hydroxyethylmercapto-3,4,5,6-tetrahydro-2H-pyran-2-one]
5 | – | 37 | 24 | Cc1cc(C)c(OC[C@@H]2C[C@@H](SC[C@H](N)C(=O)O)CC(=O)O2)c(CCCOc2ccc(F)cc2)c1 [Ve, 6S-({[2-(4-Fluorophenoxy-3-propyl)]-4,6-dimethylphenoxy}methyl)-4R-[(R)-2-amino-3-mercaptyl-propionic acid]-3,4,5,6-tetrahydro-2H-pyran-2-one]
6 | 0.2 | – | – | Cc1cc(C)c(OC[C@@H](O)C[C@@H](O)CC(=O)O)c(CCCOc2ccc(F)cc2)c1 [reference compound]
